Literature values in patent US20200316043A1, “PHARMACEUTICAL COMPOSITION COMPRISING CLEVIDIPINE AND PROCESS FOR PREPARATION THEREOF” (Aurobindo Pharma Ltd., priority 2017, published 2020).

Tests used:
[1] = target: ileal and aortic smooth muscle and cardiac muscle (Homo sapiens, UniProt Q13936); details: EDTA treatment of ileal and aortic smooth muscle and cardiac muscle
Sequence of ileal and aortic smooth muscle and cardiac muscle (Q13936 whole entry): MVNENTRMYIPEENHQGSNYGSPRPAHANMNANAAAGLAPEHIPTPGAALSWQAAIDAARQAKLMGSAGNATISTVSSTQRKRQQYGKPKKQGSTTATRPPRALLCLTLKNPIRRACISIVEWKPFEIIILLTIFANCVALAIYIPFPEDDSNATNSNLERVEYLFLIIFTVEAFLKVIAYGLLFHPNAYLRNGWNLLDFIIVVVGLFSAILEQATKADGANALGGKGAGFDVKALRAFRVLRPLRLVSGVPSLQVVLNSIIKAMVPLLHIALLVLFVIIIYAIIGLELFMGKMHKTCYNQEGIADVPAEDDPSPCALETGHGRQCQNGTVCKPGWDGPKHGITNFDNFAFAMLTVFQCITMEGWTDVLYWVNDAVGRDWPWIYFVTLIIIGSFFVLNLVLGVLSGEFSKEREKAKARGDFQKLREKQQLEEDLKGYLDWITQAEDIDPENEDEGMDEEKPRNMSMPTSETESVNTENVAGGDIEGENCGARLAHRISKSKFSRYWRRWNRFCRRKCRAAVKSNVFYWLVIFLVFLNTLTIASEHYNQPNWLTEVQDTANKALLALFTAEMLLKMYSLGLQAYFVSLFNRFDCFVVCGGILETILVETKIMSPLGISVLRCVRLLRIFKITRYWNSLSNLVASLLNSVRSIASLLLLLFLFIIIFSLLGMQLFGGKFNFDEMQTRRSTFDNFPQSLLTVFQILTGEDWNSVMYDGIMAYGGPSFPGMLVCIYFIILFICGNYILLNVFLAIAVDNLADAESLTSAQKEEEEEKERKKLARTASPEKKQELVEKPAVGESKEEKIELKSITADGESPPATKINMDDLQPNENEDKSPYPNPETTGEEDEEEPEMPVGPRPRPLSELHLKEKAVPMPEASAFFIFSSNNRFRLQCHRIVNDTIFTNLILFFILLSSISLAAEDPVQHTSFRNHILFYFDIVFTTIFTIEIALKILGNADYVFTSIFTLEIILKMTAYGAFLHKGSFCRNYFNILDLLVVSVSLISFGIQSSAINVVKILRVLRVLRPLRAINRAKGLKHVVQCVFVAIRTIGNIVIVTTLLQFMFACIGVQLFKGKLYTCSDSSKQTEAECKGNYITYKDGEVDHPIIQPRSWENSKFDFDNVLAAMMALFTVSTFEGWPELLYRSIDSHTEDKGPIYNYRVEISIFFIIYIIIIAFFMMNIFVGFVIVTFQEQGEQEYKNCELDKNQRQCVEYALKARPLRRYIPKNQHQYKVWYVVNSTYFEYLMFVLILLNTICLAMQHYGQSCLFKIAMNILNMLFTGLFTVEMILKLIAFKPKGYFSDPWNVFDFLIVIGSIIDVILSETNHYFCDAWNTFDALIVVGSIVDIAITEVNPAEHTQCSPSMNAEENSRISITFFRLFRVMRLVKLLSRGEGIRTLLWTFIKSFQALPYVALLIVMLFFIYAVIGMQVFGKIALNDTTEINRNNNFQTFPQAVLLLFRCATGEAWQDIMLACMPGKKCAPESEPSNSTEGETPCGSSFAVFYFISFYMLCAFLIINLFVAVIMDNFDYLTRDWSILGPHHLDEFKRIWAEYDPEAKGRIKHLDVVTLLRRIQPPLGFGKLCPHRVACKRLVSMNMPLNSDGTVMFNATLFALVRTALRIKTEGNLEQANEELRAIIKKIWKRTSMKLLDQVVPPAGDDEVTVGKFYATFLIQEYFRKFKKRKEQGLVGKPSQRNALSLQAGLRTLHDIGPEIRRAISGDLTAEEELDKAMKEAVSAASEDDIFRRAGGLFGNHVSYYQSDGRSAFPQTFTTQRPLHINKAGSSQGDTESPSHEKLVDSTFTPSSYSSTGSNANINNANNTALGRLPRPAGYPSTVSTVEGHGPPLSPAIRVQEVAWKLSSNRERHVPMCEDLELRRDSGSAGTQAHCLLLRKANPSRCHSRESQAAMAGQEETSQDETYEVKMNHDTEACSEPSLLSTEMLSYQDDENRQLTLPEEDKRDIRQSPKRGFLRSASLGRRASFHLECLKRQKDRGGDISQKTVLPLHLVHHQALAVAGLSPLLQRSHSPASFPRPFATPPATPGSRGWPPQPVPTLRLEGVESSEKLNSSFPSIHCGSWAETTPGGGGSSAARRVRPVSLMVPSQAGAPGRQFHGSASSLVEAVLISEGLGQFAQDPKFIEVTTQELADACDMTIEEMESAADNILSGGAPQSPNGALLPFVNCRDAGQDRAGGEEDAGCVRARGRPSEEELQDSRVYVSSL

SMILES | solubility in lipids | solubility in water | reduction of specific [3H] nitrendipine binding [1]
CCCC(=O)OCOC(=O)C1=C(C)NC(C)=C(C(=O)OC)C1c1cccc(Cl)c1Cl (stereo not drawn) [Clevidipine, butyroxymethyl methyl 4-(2′,3′dichlorophenyl)-1,4-dihydro-2,6-dimethyl-3,5-pyridinedicarboxylate] | moderate to high | low | –
O=C(O)CN(CCN(CC(=O)O)CC(=O)O)CC(=O)O [EDTA, Ethylene Diaminetetraacetic acid] | – | – | 70-95%
